Laboratory results: patent US20040138285A1, “Chondrogenesis promoters” (priority 2001, published 2004)

Key:
[1] = tested on: rat articular chondrocytes; assay: Cartilage matrix production promoting effect of compound A and PD98059 (alcian blue staining), Example 2; assay type: cell-based; details: one week; for ratio of alcian blue positive cells (photomicrograph after alcian blue staining): compound A 2×10^−6 mol/L or PD98059 5×10^−5 mol/L alone, vs vehicle control (FIG. 7); for production of the cartilage matrix (alcian blue staining intensity, absorption at 595 nm): each agent alone (compound A 2×10^−6 mol/L; PD98059 5×10^−5 mol/L), vs vehicle control, p<0.05 (FIG. 8)
Experimental: A 5-week-old male SD rat (Charles River Japan Corp.) was euthanized, and thereafter the femur was removed therefrom, and the articular cartilage layer was stripped off from the knee joint surface of the femur with a scalpel. The articular cartilage obtained was treated with 0.15% trypsin (DIFCO Lab.)/0.05% EDTA (Nacalai Tesque, Inc.) at 37° C. for one hour, and thereafter the matrix was decomposed while being agitated at 37° C. in 0.15% collagenase (WORTHINGTON Corp.) for three hours, thereby obtaining a cell suspension. The cartilage cells obtained were seeded at the cell density of 20000 per well in a 24-well culturing plate (Falcon Corp.) coated with type I collagen (Nitta Gelatin Inc.) and were cultured in a Dulbecco's modified Eagle medium (Gibco) containing 10% fetal bovine serum (REHATUIN) and antibiotic-antimycotic (Gibco) (Calcif. Tissue Int. 19: 179-187, 1975). After achievement of the confluent state of cells, 50 μg/mL ascorbic acid (Wako Pure Chemical Industries) was added to the medium, and either or both of 2×10^−6 mol/L compound A and 2×10^−6 to 5×10^−5 mol/L compound with MEK1 inhibitory activity PD98059 (New England Biolab) were further added thereto, followed by culture for one week. 0.12% DMSO (JUNSEI CHEMICAL CO., LTD) was used as a solvent vehicle control. The medium was replaced every two to three days and the above agents were added every replacement.
After completion of the culture, the cell layer was fixed at room temperature in 4% paraformaldehyde solution (Wako Pure Chemical Industries) for two hours and then washed with distilled water and 5% acetic acid of pH 1.0, and thereafter the cartilage matrix was stained at room temperature with alcian blue of pH 1.0 (Wako Pure Chemical Industries) for two hours. The cell layer was washed with 5% acetic acid and distilled water and then dried, 6 mol/L guanidine hydrochloride (Nacalai Tesque, Inc.) was added to the cell layer to extract the dye therefrom, and absorption was measured at 595 nm with the Microplate reader (BioRad).

[2] = tested on: rat articular chondrocytes; assay: Cartilage matrix production promoting effect of compound A and U0126 (alcian blue staining, phase contrast morphology), Example 1; assay type: cell-based
Experimental: A 5-week-old male SD rat (Charles River Japan Corp.) was euthanized, and thereafter the femur was removed therefrom, and the articular cartilage layer was stripped off from the knee joint surface of the femur with a scalpel. The articular cartilage obtained was treated with 0.15% trypsin (DIFCO Lab.)/0.05% EDTA (KANTO KAGAKU CORP.) at 37° C. for one hour, and thereafter the matrix was decomposed while being agitated at 37° C. in 0.15% collagenase (WORTHINGTON Corp.) for three hours, thereby obtaining a cell suspension. […] 0.12% DMSO (Wako Pure Chemical Industries) was used as a solvent vehicle control. The medium was replaced every two to three days and the above agents were added every replacement.
After completion of the culture, the cell layer was fixed at room temperature in 4% paraformaldehyde solution (Wako Pure Chemical Industries) for two hours and then washed with distilled water and 5% acetic acid of pH 1.0, and thereafter the cartilage matrix was stained at room temperature with alcian blue of pH 1.0 (Wako Pure Chemical Industries) for two hours. The cell layer was washed with 5% acetic acid and distilled water and then dried, 6 mol/L guanidine hydrochloride (Nacalai Tesque, Inc.) was added to the cell layer to extract the dye therefrom, and the absorption was measured at 630 nm with a Microplate reader (BioRad).

| SMILES | ratio of alcian blue positive cells (photomicrograph after alcian blue staining) [1] | production of the cartilage matrix (alcian blue staining intensity, absorption at 595 nm) [1] | production of the matrix and morphology of chondrocytes (phase contrast photomicrograph) ([2]; compound A 2×10^−6 mol/L alone, cultured one week, vs vehicle control 0.12% DMSO (FIG. 2)) | production of the cartilage matrix (alcian blue staining intensity, absorption at 630 nm) ([2]; each agent alone (compound A 5×10^−7 to 2×10^−6 mol/L; U0126 1×10^−7 to 1×10^−5 mol/L), one week, vs vehicle control, p<0.05 (FIGS. 5 and 6)) |
| --- | --- | --- | --- | --- |
| COc1cccc(-c2cc(=O)c3ccccc3o2)c1N [PD98059, reference compound] | the ratio of alcian blue positive cells increased | significantly promoted the production of the cartilage matrix |  |  |
| CCOC(CN1C(=O)[C@](CC(=O)Nc2ccc(C)cc2)(NC(=O)Nc2ccc(C)cc2)c2ccccc21)OCC [compound A] | the ratio of alcian blue positive cells increased | significantly promoted the production of the cartilage matrix | production of the matrix was enhanced | significantly promoted the production of the cartilage matrix |
